Results reported in US20080234262A1 (Wyeth, priority 2007, published 2008).
pIC50: −log10 of the molar value. Where two headings read alike, the source gives them in different places.

How the values were obtained:
[1] = tested on: breast line MDA468; assay: In vitro cell culture growth assay (MTS), MDA468; type: cell-based, human; conditions: MDA468 cells, three days after drug treatment
How it was run: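 Three-day drug treatment starting 1 day post-plating; viable cells quantified via MTS metabolism (A490); effect normalised to in-plate vehicle controls as % growth.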

[2] = tested on: prostate line LNCap; assay: In vitro cell culture growth assay (MTS), LNCap; type: cell-based, human; conditions: LNCap cells, three days after drug treatment;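 also: viable cell density read by absorbance at 490 nm, growth expressed as percent of vehicle-treated cells on the same plate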
[3] = biological target: PI3K (Homo sapiens, UniProt P42336); assay: Fluorescence polarization assay for PI3K; type: biochemical;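 also: PI3K kinase reaction on PIP2 with ATP, 30-60 min, product sensed by GST-GRP with red probe in fluorescence polarization (mP), controls without enzyme and at zero time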
Chain of PI3K (P42336 whole entry): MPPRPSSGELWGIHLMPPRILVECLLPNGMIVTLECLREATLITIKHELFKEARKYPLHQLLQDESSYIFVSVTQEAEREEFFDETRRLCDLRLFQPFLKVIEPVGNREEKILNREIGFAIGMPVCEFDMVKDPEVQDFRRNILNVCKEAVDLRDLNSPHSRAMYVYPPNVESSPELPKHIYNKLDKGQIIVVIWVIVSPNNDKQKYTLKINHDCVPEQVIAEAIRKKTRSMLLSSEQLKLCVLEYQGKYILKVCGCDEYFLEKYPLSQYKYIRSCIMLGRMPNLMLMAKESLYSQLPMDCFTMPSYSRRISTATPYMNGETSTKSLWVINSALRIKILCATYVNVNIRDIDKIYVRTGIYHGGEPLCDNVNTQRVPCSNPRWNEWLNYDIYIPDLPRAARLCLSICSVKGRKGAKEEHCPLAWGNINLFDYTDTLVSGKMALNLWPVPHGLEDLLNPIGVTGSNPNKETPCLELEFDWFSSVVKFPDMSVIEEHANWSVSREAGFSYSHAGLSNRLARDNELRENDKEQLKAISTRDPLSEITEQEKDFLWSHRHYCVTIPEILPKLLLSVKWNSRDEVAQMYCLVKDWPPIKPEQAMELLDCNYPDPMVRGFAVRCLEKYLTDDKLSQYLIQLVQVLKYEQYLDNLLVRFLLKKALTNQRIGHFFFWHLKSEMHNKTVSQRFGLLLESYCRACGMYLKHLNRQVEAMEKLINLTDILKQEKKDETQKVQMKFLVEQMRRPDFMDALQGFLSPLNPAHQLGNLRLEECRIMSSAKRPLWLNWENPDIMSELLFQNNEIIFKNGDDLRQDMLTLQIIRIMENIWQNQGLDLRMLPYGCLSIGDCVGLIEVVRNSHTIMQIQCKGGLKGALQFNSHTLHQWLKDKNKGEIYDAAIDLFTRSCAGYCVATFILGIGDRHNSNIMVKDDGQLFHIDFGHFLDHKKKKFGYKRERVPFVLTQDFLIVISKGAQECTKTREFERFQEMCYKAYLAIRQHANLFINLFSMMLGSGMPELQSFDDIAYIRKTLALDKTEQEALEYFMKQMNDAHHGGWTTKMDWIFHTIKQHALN
Chain of PI3K (P27986 whole entry partner): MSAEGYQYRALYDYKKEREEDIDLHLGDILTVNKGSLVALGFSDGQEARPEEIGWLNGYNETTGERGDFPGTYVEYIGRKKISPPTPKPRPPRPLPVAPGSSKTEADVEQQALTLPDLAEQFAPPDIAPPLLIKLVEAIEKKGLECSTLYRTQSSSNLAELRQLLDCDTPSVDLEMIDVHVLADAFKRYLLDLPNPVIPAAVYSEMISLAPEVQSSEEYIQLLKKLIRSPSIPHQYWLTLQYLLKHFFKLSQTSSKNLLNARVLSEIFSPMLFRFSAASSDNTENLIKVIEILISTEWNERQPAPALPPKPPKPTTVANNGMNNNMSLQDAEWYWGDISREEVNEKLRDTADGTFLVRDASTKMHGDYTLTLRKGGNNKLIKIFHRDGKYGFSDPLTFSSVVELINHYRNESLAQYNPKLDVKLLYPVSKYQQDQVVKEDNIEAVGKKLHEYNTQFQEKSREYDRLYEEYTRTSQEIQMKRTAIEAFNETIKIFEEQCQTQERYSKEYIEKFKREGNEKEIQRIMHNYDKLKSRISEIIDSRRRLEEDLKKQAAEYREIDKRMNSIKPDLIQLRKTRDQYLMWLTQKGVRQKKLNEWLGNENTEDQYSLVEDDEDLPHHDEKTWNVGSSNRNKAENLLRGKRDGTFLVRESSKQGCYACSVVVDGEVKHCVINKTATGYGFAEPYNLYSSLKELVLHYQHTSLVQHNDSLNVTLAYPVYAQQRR

Structure (SMILES)	pIC50 ([1]; Homo sapiens, 72 h)	pIC50 ([2]; Homo sapiens, LNCaP, 72 h)	pIC50 ([3]; PI3Kα; read-out: PI3Kα IC50)	pIC50 [1]	pIC50 [2]	pIC50 ([3]; read-out: PI3Kα IC50; PI3Kα)
COC(=O)N1CCC(n2ncc3c(N4CCOCC4)nc(-c4ccc(NC(=O)Nc5ccc(CCN6CCCCC6)cc5)cc4)nc32)CC1 [Compound 915, methyl 4-{4-morpholin-4-yl-6-[4-({[4-(2-piperidin-1-ylethyl)phenyl]carbamoyl}amino)phenyl]-1H-pyrazolo[3,4-d]pyrimidin-1-yl}piperidine-1-carboxylate]	7.60	9.11	7.59			
O=C(c1ccc[n+]([O-])c1)N1CCC(n2ncc3c(N4CCOCC4)nc(-c4ccc5[nH]ccc5c4)nc32)CC1 [Compound 197]	5.42	5.60	5.51			
O=C(c1cccnc1Cl)N1CCC(n2ncc3c(N4CCOCC4)nc(-c4ccc5[nH]ccc5c4)nc32)CC1 [Example 195, 1-{1-[(2-chloropyridin-3-yl)carbonyl]piperidin-4-yl}-6-(1H-indol-5-yl)-4-morpholin-4-yl-1H-pyrazolo[3,4-d]pyrimidine]	6.00	6.35	5.77			
COC(=O)N1CCC(n2ncc3c(N4CCOCC4)nc(-c4ccc(NC(=O)OCCN)cc4)nc32)CC1 [Compound 903, methyl 4-[6-(4-{[(2-aminoethoxy)carbonyl]amino}phenyl)-4-morpholin-4-yl-1H-pyrazolo[3,4-d]pyrimidin-1-yl]piperidine-1-carboxylate]	5.10	5.49	6.88			
CN(C)C(=O)N1CCC(n2ncc3c(N4CCOCC4)nc(-c4ccc5[nH]ccc5c4)nc32)CC1 [Compound 95]	5.68	6.15	5.61			
CCOC(=O)N1CCC(n2ncc3c(N4CCOCC4)nc(-c4ccc(NC(=O)NCCO)cc4)nc32)CC1 [Compound 818, ethyl 4-[6-(4-{[(2-hydroxyethyl)carbamoyl]amino}phenyl)-4-morpholin-4-yl-1H-pyrazolo[3,4-d]pyrimidin-1-yl]piperidine-1-carboxylate]	6.60	6.49	6.35			
CNC(=O)Nc1ccc(-c2nc(N3CCOCC3)c3cnn(C4CCN(C(=O)OCCN(C)C)CC4)c3n2)cc1 [Compound 803, 2-(dimethylamino)ethyl 4-(6-{4-[(methylcarbamoyl)amino]phenyl}-4-morpholin-4-yl-1H-pyrazolo[3,4-d]pyrimidin-1-yl)piperidine-1-carboxylate]	6.00	6.00	6.76			
O=C(NCCO)Nc1ccc(-c2nc(N3CCOCC3)c3cnn(C4CCNCC4)c3n2)cc1 [Compound 775, 1-(2-hydroxyethyl)-3-[4-(4-morpholin-4-yl-1-piperidin-4-yl-1H-pyrazolo[3,4-d]pyrimidin-6-yl)phenyl]urea]	4.92	4.59	6.77			
CNC(=O)Nc1ccc(-c2nc(N3CCOCC3)c3cnn(C4CCN(C(=O)OCCOC)CC4)c3n2)cc1 [Compound 800, 2-methoxyethyl 4-(6-{4-[(methylcarbamoyl)amino]phenyl}-4-morpholin-4-yl-1H-pyrazolo[3,4-d]pyrimidin-1-yl)piperidine-1-carboxylate]	6.59	6.85	6.92			
O=C(Oc1ccccc1)N1CCC(n2ncc3c(N4CCOCC4)nc(-c4ccc5[nH]ccc5c4)nc32)CC1 [Compound 493, phenyl 4-[6-(1H-indol-5-yl)-4-morpholin-4-yl-1H-pyrazolo[3,4-d]pyrimidin-1-yl]piperidine-1-carboxylate]				5.37	5.89	6.27
CNC(=O)Nc1ccc(-c2nc(N3CCOCC3)c3cnn(C4CCN(Cc5ccccc5Cl)CC4)c3n2)cc1 [Example 396, 1-(4-{1-[1-(2-chlorobenzyl)piperidin-4-yl]-4-morpholin-4-yl-1H-pyrazolo[3,4-d]pyrimidin-6-yl}phenyl)-3-methylurea]	6.70	7.42	7.46			
Nc1ccc(-c2nc(N3CCOCC3)c3cnn(C4CCN(Cc5ccccc5)CC4)c3n2)cc1F [Compound 347, 4-[1-(1-benzylpiperidin-4-yl)-4-morpholin-4-yl-1H-pyrazolo[3,4-d]pyrimidin-6-yl]-2-fluoroaniline]	5.40	5.70	5.78			
CNC(=O)Nc1ccc(-c2nc(N3CCOCC3)c3cnn(C4CCN(CCCCO)CC4)c3n2)cc1 [Compound 743, 1-(4-{1-[1-(4-hydroxybutyl)piperidin-4-yl]-4-morpholin-4-yl-1H-pyrazolo[3,4-d]pyrimidin-6-yl}phenyl)-3-methylurea]	5.66	5.74	6.67			
CN(C)CCCNC(=O)Nc1ccc(-c2nc(N3CCOCC3)c3cnn(C4CCN(Cc5ccccc5)CC4)c3n2)cc1 [Compound 271, 1-{4-[1-(1-benzylpiperidin-4-yl)-4-morpholin-4-yl-1H-pyrazolo[3,4-d]pyrimidin-6-yl]phenyl}-3-[3-(dimethylamino)propyl]urea]	5.70	6.19	6.80			
CC(C)(C)OC(=O)N1CCC(n2ncc3c(N4CCOCC4)nc(-c4ccc(NC(=O)Nc5ccccc5)cc4)nc32)CC1 [Compound 768, tert-butyl 4-(6-{4-[(anilinocarbonyl)amino]phenyl}-4-morpholin-4-yl-1H-pyrazolo[3,4-d]pyrimidin-1-yl)piperidine-1-carboxylate]	6.15	6.69	7.13			
CNC(=O)Nc1ccc(-c2nc(N3CCOCC3)c3cnn(C4CCN(C(=O)NC)CC4)c3n2)cc1 [Example 477, N-methyl-4-(6-{4-[(methylcarbamoyl)amino]phenyl}-4-morpholin-4-yl-1H-pyrazolo[3,4-d]pyrimidin-1-yl)piperidine-1-carboxamide]	5.74	5.66	6.83			
CNC(=NC#N)Nc1ccc(-c2nc(N3CCOCC3)c3cnn(C4CCN(C(=O)c5cccnc5)CC4)c3n2)cc1 [Example 412, 2-cyano-1-methyl-3-(4-{4-morpholin-4-yl-1-[1-(pyridin-3-ylcarbonyl)piperidin-4-yl]-1H-pyrazolo[3,4-d]pyrimidin-6-yl}phenyl)guanidine]	5.22	5.52	6.42			
O=C(NO)Nc1ccc(-c2nc(N3CCOCC3)c3cnn(C4CCN(C(=O)c5cccnc5)CC4)c3n2)cc1 [Compound 550, 1-hydroxy-3-(4-{4-morpholin-4-yl-1-[1-(pyridin-3-ylcarbonyl)piperidin-4-yl]-1H-pyrazolo[3,4-d]pyrimidin-6-yl}phenyl)urea]	5.14	5.00	6.22			
CNC(=O)Nc1ccc(-c2nc(N3CCOCC3)c3cnn(C4CCN(C(=O)c5cnccc5C)CC4)c3n2)cc1 [Example 419, 1-methyl-3-[4-(1-{1-[(4-methylpyridin-3-yl)carbonyl]piperidin-4-yl}-4-morpholin-4-yl-1H-pyrazolo[3,4-d]pyrimidin-6-yl)phenyl]urea]	6.40	6.49	6.64			
CNC(=O)Nc1ccc(-c2nc(N3CCOCC3)c3cnn(C4CCN(C(C)=O)CC4)c3n2)cc1 [Example 472, 1-{4-[1-(1-acetylpiperidin-4-yl)-4-morpholin-4-yl-1H-pyrazolo[3,4-d]pyrimidin-6-yl]phenyl}-3-methylurea]	5.92	6.10	6.65			
O=C(Nc1ccc(-c2nc(N3CCOCC3)c3cnn(C4CCN(C(=O)c5cccnc5)CC4)c3n2)cc1)Nc1ccsc1 [Example 414, 1-(4-{4-morpholin-4-yl-1-[1-(pyridin-3-ylcarbonyl)piperidin-4-yl]-1H-pyrazolo[3,4-d]pyrimidin-6-yl}phenyl)-3-(3-thienyl)urea]	7.00	7.40	7.74			
Cc1ccc(C(=O)N2CCC(n3ncc4c(N5CCOCC5)nc(-c5ccc6[nH]ccc6c5)nc43)CC2)cn1 [Example 202, 6-(1H-indol-5-yl)-1-{1-[(6-methylpyridin-3-yl)carbonyl]piperidin-4-yl}-4-morpholin-4-yl-1H-pyrazolo[3,4-d]pyrimidine]	5.70	6.40	5.68			
N#CNC(=O)Nc1ccc(-c2nc(N3CCOCC3)c3cnn(C4CCN(Cc5cccnc5)CC4)c3n2)cc1 [Example 409, N′-cyano-N-(4-{4-morpholin-4-yl-1-[1-(pyridin-3-ylmethyl)piperidin-4-yl]-1H-pyrazolo[3,4-d]pyrimidin-6-yl}phenyl)carbamimidic acid]	5.60	6.10	6.44			
NC(=O)Nc1ccc(-c2nc(N3CCOCC3)c3cnn(C4CCN(C(=O)c5ccccc5)CC4)c3n2)cc1 [Compound 627, 1-{4-[1-(1-benzoylpiperidin-4-yl)-4-morpholin-4-yl-1H-pyrazolo[3,4-d]pyrimidin-6-yl]phenyl}urea]			7.08	6.80	6.77	
Oc1cccc(CN2CCC(n3ncc4c(N5CCOCC5)nc(-c5ccc6[nH]ccc6c5)nc43)CC2)c1 [Example 76]	6.00	6.05	6.28			
CNC(=O)Nc1cccc(-c2nc(N3CCOCC3)c3cnn(C4CCN(Cc5ccccc5)CC4)c3n2)c1 [Compound 482, N-{3-[1-(1-benzylpiperidin-4-yl)-4-morpholin-4-yl-1H-pyrazolo[3,4-d]pyrimidin-6-yl]phenyl}-N′-methylurea]	5.17	5.24	5.72			
CCNC(=O)Nc1ccc(-c2nc(N3CCOC[C@H]3C)c3cnn(C4CCN(C(=O)OCC)CC4)c3n2)cc1 [Compound 889, ethyl 4-(6-{4-[(ethylcarbamoyl)amino]phenyl}-4-[(3R)-3-methylmorpholin-4-yl]-1H-pyrazolo[3,4-d]pyrimidin-1-yl)piperidine-1-carboxylate]	6.22	7.72	5.36			
